Where “and” joins values, the source holds several entries; their conditions need not be identical. Equal entries are not always repeated.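 Results reflect a 48-hour exposure of cells in 96-well plates to compound at five concentrations. GI50 marks 50% less growth. TGI: total growth inhibition.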 Calls of active or inactive are those of the source. Rule as the data show it: active = GI50 below about 0.43 µM; inactive = the rest.
Legend:
Experiment in all cases: NCI anticancer screen, dose series, 48 h
MOLT-4 leukemia = test system: MOLT-4 leukemia
COLO 205 colon = test system: COLO 205 colon
KM12 colon = test system: KM12 colon
RPMI-8226 leukemia = test system: RPMI-8226 leukemia
NCI-H522 lung = test system: NCI-H522 lung
SN12C renal = test system: SN12C renal
A498 renal = test system: A498 renal
XF 498 CNS = test system: XF 498 CNS
DMS 273 small cell lung = test system: DMS 273 small cell lung
KM20L2 colon = test system: KM20L2 colon
OVCAR-5 ovarian = test system: OVCAR-5 ovarian
U251 CNS = test system: U251 CNS
M19-MEL melanoma = test system: M19-MEL melanoma
SNB-75 CNS = test system: SNB-75 CNS
MALME-3M melanoma = test system: MALME-3M melanoma
SR leukemia = test system: SR leukemia
HOP-92 NSCLC = test system: HOP-92 NSCLC
HT29 colon = test system: HT29 colon
NCI-H226 lung = test system: NCI-H226 lung
UO-31 renal = test system: UO-31 renal
OVCAR-8 ovarian = test system: OVCAR-8 ovarian
OVCAR-3 ovarian = test system: OVCAR-3 ovarian
SF-268 CNS = test system: SF-268 CNS
NCI-H460 lung = test system: NCI-H460 lung
LOX IMVI melanoma = test system: LOX IMVI melanoma
HCT-15 colon = test system: HCT-15 colon
SK-MEL-2 melanoma = test system: SK-MEL-2 melanoma
UACC-257 melanoma = test system: UACC-257 melanoma
SF-295 CNS = test system: SF-295 CNS
M14 melanoma = test system: M14 melanoma
SNB-78 CNS = test system: SNB-78 CNS
ACHN renal = test system: ACHN renal
CAKI-1 renal = test system: CAKI-1 renal
TK-10 renal = test system: TK-10 renal
DLD-1 colon = test system: DLD-1 colon
SNB-19 CNS = test system: SNB-19 CNS
A549 NSCLC = test system: A549 NSCLC
RXF 393 renal = test system: RXF 393 renal
NCI-H23 lung = test system: NCI-H23 lung
EKVX NSCLC = test system: EKVX NSCLC
HL-60(TB) leukemia = test system: HL-60(TB) leukemia
SK-MEL-5 melanoma = test system: SK-MEL-5 melanoma
HOP-18 NSCLC = test system: HOP-18 NSCLC
HCT-116 colon = test system: HCT-116 colon
UACC-62 melanoma = test system: UACC-62 melanoma
OVCAR-4 ovarian = test system: OVCAR-4 ovarian
IGROV1 ovarian = test system: IGROV1 ovarian
SF-539 CNS = test system: SF-539 CNS
K-562 leukemia = test system: K-562 leukemia
SK-OV-3 ovarian = test system: SK-OV-3 ovarian
CCRF-CEM leukemia = test system: CCRF-CEM leukemia
HCC-2998 colon = test system: HCC-2998 colon
786-0 renal = test system: 786-0 renal
DMS 114 small cell lung = test system: DMS 114 small cell lung
HOP-62 NSCLC = test system: HOP-62 NSCLC
SK-MEL-28 melanoma = test system: SK-MEL-28 melanoma
SW-620 colon = test system: SW-620 colon

For `N/C(=N\N=C/c1c2ccccc2c(Cl)c2ccccc12)NO`, the TGI (MOLT-4 leukemia) was 37.2 µM, the outcome (MOLT-4 leukemia) was “inactive” and the GI50 (COLO 205 colon) was 3.22 µM. For the same molecule, the TGI (COLO 205 colon) was 14.1 µM and 14.7 µM, the GI50 (KM12 colon) was 4.01 µM and the TGI (KM12 colon) was 21.7 µM and 16 µM. For the same molecule, the TGI (RPMI-8226 leukemia) was 26.6 µM, the outcome (RPMI-8226 leukemia) was “inactive” and the GI50 (NCI-H522 lung) was 1.8 µM. The TGI (NCI-H522 lung) was 14.2 µM and 3.98 µM, the GI50 (SN12C renal) was 2.21 µM and the TGI (SN12C renal) was 19.4 µM and 5.58 µM. The TGI (A498 renal) was 29 µM, the GI50 (XF 498 CNS) was 3.26 µM and the TGI (XF 498 CNS) was 30.5 µM and 17.1 µM. For the same molecule, the TGI (DMS 273 small cell lung) was 3.89 µM, the TGI (KM20L2 colon) was 4.81 µM and the GI50 (OVCAR-5 ovarian) was 2.54 µM. The TGI (OVCAR-5 ovarian) was 10.2 µM and 8.81 µM, the TGI (U251 CNS) was 20 µM and 20.6 µM and the GI50 (M19-MEL melanoma) was 5.4 µM. The TGI (M19-MEL melanoma) was 19.6 µM and 18.6 µM, the TGI (SNB-75 CNS) was 25.8 µM and 32 µM and the TGI (MALME-3M melanoma) was 19.4 µM. For the same molecule, the outcome (SR leukemia) was “inactive”, the GI50 (HOP-92 NSCLC) was 10.8 µM and the TGI (HOP-92 NSCLC) was 12.3 µM and 28.7 µM. For the same molecule, the GI50 (HT29 colon) was 2.84 µM, the TGI (HT29 colon) was 15.6 µM and 8.47 µM and the TGI (NCI-H226 lung) was 6.86 µM. The GI50 (UO-31 renal) was 2.36 µM, the TGI (UO-31 renal) was 22.5 µM and 7.44 µM and the GI50 (OVCAR-8 ovarian) was 1.99 µM. For the same molecule, the TGI (OVCAR-8 ovarian) was 18.9 µM and 4.92 µM, the TGI (OVCAR-3 ovarian) was 14 µM and the GI50 (SF-268 CNS) was 10.2 µM. For the same molecule, the TGI (SF-268 CNS) was 26 µM and 27.4 µM, the GI50 (NCI-H460 lung) was 2.81 µM and the TGI (NCI-H460 lung) was 11 µM and 9.94 µM. For the same molecule, the TGI (LOX IMVI melanoma) was 12.2 µM, the GI50 (HCT-15 colon) was 2.57 µM and the TGI (HCT-15 colon) was 19.4 µM and 6.72 µM. For the same molecule, the GI50 (SK-MEL-2 melanoma) was 3.61 µM, the TGI (SK-MEL-2 melanoma) was 23.3 µM and 16.9 µM and the GI50 (UACC-257 melanoma) was 4.25 µM. The TGI (UACC-257 melanoma) was 11.8 µM and 14.6 µM, the GI50 (SF-295 CNS) was 13 µM and the TGI (SF-295 CNS) was 10.4 µM and 26.1 µM. The GI50 (M14 melanoma) was 2.65 µM, the TGI (M14 melanoma) was 25.1 µM and 9.47 µM and the TGI (SNB-78 CNS) was 25.3 µM and 30.5 µM. For the same molecule, the GI50 (ACHN renal) was 3.84 µM, the TGI (ACHN renal) was 15.8 µM and 13.8 µM and the TGI (CAKI-1 renal) was 19.5 µM and 18.5 µM. The TGI (TK-10 renal) was 24.3 µM, the TGI (DLD-1 colon) was 20.1 µM and 19.1 µM and the GI50 (SNB-19 CNS) was 7.87 µM. For the same molecule, the TGI (SNB-19 CNS) was 24.1 µM and 21.3 µM, the GI50 (A549 NSCLC) was 2.25 µM and the TGI (A549 NSCLC) was 11 µM and 5.57 µM. The GI50 (RXF 393 renal) was 4.61 µM, the TGI (RXF 393 renal) was 3.5 µM and 17.9 µM and the GI50 (NCI-H23 lung) was 6.51 µM. The TGI (NCI-H23 lung) was 17.3 µM and 19.8 µM, the TGI (EKVX NSCLC) was 15.5 µM and 13.5 µM and the TGI (HL-60(TB) leukemia) was 7.31 µM. For the same molecule, the GI50 (SK-MEL-5 melanoma) was 2.39 µM, the TGI (SK-MEL-5 melanoma) was 16.6 µM and 6.5 µM and the TGI (HOP-18 NSCLC) was 10.7 µM and 13.9 µM. The GI50 (HCT-116 colon) was 1.76 µM, the TGI (HCT-116 colon) was 13.8 µM and 3.36 µM and the GI50 (UACC-62 melanoma) was 1.63 µM. The TGI (UACC-62 melanoma) was 4.39 µM and 3.3 µM, the GI50 (OVCAR-4 ovarian) was 2.62 µM and the TGI (OVCAR-4 ovarian) was 20.4 µM and 15 µM. The TGI (IGROV1 ovarian) was 15.5 µM and 18.5 µM, the GI50 (SF-539 CNS) was 8.44 µM and the TGI (SF-539 CNS) was 21.3 µM and 21.8 µM. For the same molecule, the GI50 (K-562 leukemia) was 3.17 µM, the TGI (SK-OV-3 ovarian) was 10.5 µM and the GI50 (CCRF-CEM leukemia) was 1.37 µM. For the same molecule, the TGI (CCRF-CEM leukemia) was 13.7 µM, the GI50 (HCC-2998 colon) was 1.85 µM and the TGI (HCC-2998 colon) was 13.7 µM and 3.97 µM. For the same molecule, the GI50 (786-0 renal) was 5.63 µM, the TGI (786-0 renal) was 26.1 µM and 19.6 µM and the GI50 (DMS 114 small cell lung) was 2.79 µM. The TGI (DMS 114 small cell lung) was 12.8 µM and 10.2 µM, the GI50 (HOP-62 NSCLC) was 5.71 µM and the TGI (HOP-62 NSCLC) was 27.8 µM and 22.9 µM. For the same molecule, the TGI (SK-MEL-28 melanoma) was 27.6 µM and 27.5 µM, the GI50 (SW-620 colon) was 1.86 µM and the TGI (SW-620 colon) was 18 µM and 3.68 µM.
